From US7348155B2, “Method for identifying compounds for treating aging processes in the coronary circulatory system” (Sanofi-Aventis Deutschland GmbH, priority 2001, dated 2008)
Values joined by “and” are separate entries in the source; they are usually repeats but may differ in a detail not shown here. Identical values can stand only once.

Tests used:
Assay type in all cases: cell-based
[1] = test system: human cardiac fibroblasts from healthy donor hearts; experiment: Procollagen type I C-peptide ELISA (collagen synthesis) in fibroblasts from control (healthy donor) hearts; conditions: 10^−7 mol/l; for Collagen synthesis (procollagen type I C-peptide, Absorption, in % of the controls), MV: mean value over control (donor) hearts
Experimental: (§1) Human cardiac fibroblasts were isolated from seven explanted human hearts in the terminal stage of cardiac insufficiency due to dilated cardiomyopathy. Four cell preparations were also made from healthy donor hearts. The fibroblasts were isolated in sterile 10 cm Petri dishes and cultured as previously described. After about 12 weeks of culturing, the cells reached the second passage with a confluence of approx. 80%. At this stage, the serum was withdrawn for 48 hours and the cells were subsequently stimulated for various intervals of time (between 6 and 24 hours) with UII, Ang II, TNFalpha, TGFβ, UII+TNFa, (in each case 10^−7 mol/l), or buffer (control). The determinations were carried out in duplicate or in triplicate. After the stimulation, the cells were washed, removed from the Petri dishes with 1 ml of PBS and centrifuged down in Eppendorf tubes (100 rpm, 5 min, 4° C.). The supernatant was discarded. 100 ul of lysis buffer (Nonidet P40, 0.5%, SDS 0.5%) were added to about 50 ul of cells and the mixture was incubated on ice for a further 20 minutes. The lysate was centrifuged once again (20 minutes, 1400 rpm, 4° C.) and the supernatant was used for the subsequent experiments. Protein was determined by means of the BCA (bicinchoninic acid) assay. The homogenates were diluted down to a protein concentration of 2 ug/ul.
(§2) Procollagen type I C-peptide in the fibroblasts from all the hearts was determined on a 96-well microtiter plate using a commercially obtainable solid-phase ELISA assay (TaKaRa Biomedicals, Shuzo Co, Ltd.). The assay was carried out in accordance with the manufacturer's instructions. […] The values for the procollagen type I C-peptide were determined using a standard curve of 10-640 ng/ml. The standards were provided by the manufacturer. The absorption values for the stimulations obtained with the controls (buffer) were set at 100%. The absorption values for the stimulated cells were related to the control values obtained for the same heart. In each case, the mean values from duplicate or triplicate determinations were used for the calculations. A bilateral, unpaired t test was used for statistically evaluating the comparison of the stimulation responses in control cells and in cardiac insufficiency cells.

[2] = test system: fibroblasts from human hearts; experiment: Induction of mRNAs (collagen 1, MMP2, TGFbeta1, CTGF) in heart fibroblasts, real-time PCR; conditions: 1 μM, 6 hours stimulation, fibroblasts from three human hearts, GAPDH mRNA as standard reference
Experimental: Fibroblasts were isolated from human hearts as described in Cell and Tissue Research 286, 145-153 (1996). 96-98% of the resulting cell culture consisted of fibroblasts.
For the purpose of implementing this procedure, heart tissue was cut into small pieces and incubated three times, at 37° C. for 20 minutes, in KHB (Krebs Henseleit buffer) containing 2 mg of collagenase/ml and 2 mg of dispase/ml. The homogenates were combined and then centrifuged. The sediments were taken up in 10 ml of KHB. The cells were added, in portions of in each case 2 to 3 ml, to uncoated plastic containers. The volume was made up to 10 ml with DMEM (Dulbecco's modification of Eagle's medium) containing […] and 10% FCS (fetal calf serum). After having been incubated at 37° C. for 1 hour, the cells were washed twice with PBS (phosphate-buffered saline) and subsequently cultured, at 37° C. and 5% CO2, for approx. 4-8 weeks until 90% confluence had been reached. There then followed two further passages of in each case 4 weeks' duration. The cells employed in the present experiments were used after the second passage and at 70% to 90% confluence (approx. 3 months after isolation).
The reagents for implementing the cell culture techniques were obtained from Gibco BRL Life Technologies. The cells were first of all kept, at 37° C., in serum-free DMEM containing 4000 mg of glucose/l, 2 mM L-glutamine, 100 μg/0.1 mg of penicillin/streptomycin/ml and 0.1% BSA (bovine serum albumin) before angiotensin II or urotensin II was added, […] RNA was then prepared from the cells after 6 hours.
The RNA was isolated by means of standard methods using guanidinium chloride.
Reverse transcriptase (10 units/ng of RNA) was used to transcribe 500 ng of the RNA from each sample into DNA. For degrading the DNA, the entire volume, containing approx. 8-10 μg of RNA, was incubated with DNase I.
The RNAs were quantified using a LightCycler and a Fast Start SYBR Green RT-PCR kit supplied by Roche Molecular Biochemicals. Corresponding kits from other companies such as Applied Biosystems, Bio-Rad or Stratagene are also suitable for the same purpose. […] The quantities were equalized using GAPDH mRNA as the control.
Fibroblasts were isolated from three human hearts and used in the […]. […] The mRNAs (collagen 1, matrix metalloproteinase 2, TGFbeta1 and CTGF) were quantified by real-time PCR using a LightCycler™. […] Real-time PCR (polymerase chain reaction in real time) makes it possible to determine specific nucleic acids quantitatively. […]

[3] = test system: human cardiac fibroblasts from explanted hearts in the terminal stage of cardiac insufficiency; experiment: Procollagen type I C-peptide ELISA (collagen synthesis) in fibroblasts from hearts in the terminal stage of cardiac insufficiency (EFH); conditions: 10^−7 mol/l; for Collagen synthesis (procollagen type I C-peptide, Absorption, in % of the controls), MV: mean value over EFH hearts (SEM as spread)
Experimental: as §1, with “At this stage, the serum was withdrawn for 48 hours and the cells were subsequently stimulated for various intervals of time (between 6 and 24 hours) with UII, Ang II, TNFalpha, TGFβ, UII+TNFa, (in each case 10^−7 mol/l), or buffer (control).” left out
as §2

Substance	Collagen synthesis (procollagen type I C-peptide, Absorption, in % of the controls) ([1]; control heart No. 3, 6 h)	Collagen synthesis (procollagen type I C-peptide, Absorption, in % of the controls) ([1]; control heart No. 3, 12 h)	Collagen synthesis (procollagen type I C-peptide, Absorption, in % of the controls) ([1]; control heart No. 5, 6 h)	Collagen synthesis (procollagen type I C-peptide, Absorption, in % of the controls), MV [1]	MMP 2 mRNA ([2]; control 0.43 +/− 0.2)	CTGF mRNA ([2]; control 0.45 +/− 0.27)	Col 1 mRNA ([2]; control 0.56 +/− 0.1)	TGFbeta1 mRNA ([2]; control 0.60 +/− 0.09)	Collagen synthesis (procollagen type I C-peptide, Absorption, in % of the controls) ([3]; EFH heart No. 1, 24 h)	Collagen synthesis (procollagen type I C-peptide, Absorption, in % of the controls) ([3]; EFH heart No. 4, 24 h)	Collagen synthesis (procollagen type I C-peptide, Absorption, in % of the controls) ([3]; EFH heart No. 10, 5 h)	Collagen synthesis (procollagen type I C-peptide, Absorption, in % of the controls) ([3]; EFH heart No. 11, 5 h)	Collagen synthesis (procollagen type I C-peptide, Absorption, in % of the controls), MV ([3]; listed as Ang II)	Collagen synthesis (procollagen type I C-peptide, Absorption, in % of the controls) ([1]; control heart No. 6, 6 h)	Collagen synthesis (procollagen type I C-peptide, Absorption, in % of the controls), MV [3]	Collagen synthesis (procollagen type I C-peptide, Absorption, in % of the controls), MV ([3]; listed as TGF β)	Collagen synthesis (procollagen type I C-peptide, Absorption, in % of the controls) ([3]; EFH heart No. 12, 12 h)	Collagen synthesis (procollagen type I C-peptide, Absorption, in % of the controls) ([3]; EFH heart No. 13, 12 h)	Collagen synthesis (procollagen type I C-peptide, Absorption, in % of the controls) ([3]; EFH heart No. 14, 12 h)	Collagen synthesis (procollagen type I C-peptide, Absorption, in % of the controls), MV ([3]; listed as TNFalpha)
angiotensin II (DRVYIHPF; Angiotensin-2; UniProt P01019 25-32, looked up) [AII, reference compound]	84 % of the controls	92 % of the controls	88 % of the controls	88 % of the controls	0.22 +/− 0.1	0.34 +/− 0.9	0.56 +/− 0.27	0.71 +/− 0.07	142 % of the controls	471 % of the controls	94 % of the controls	113 % of the controls	205+/−67 % of the controls and 205 % of the controls	–	–	–	–	–	–	–
TGFβ	84 % of the controls	123 % of the controls	71 % of the controls	97 % of the controls	–	–	–	–	166 % of the controls	377 % of the controls	142 % of the controls	123 % of the controls	–	110 % of the controls	202 % of the controls	202+/−52 % of the controls	–	–	–	–
TNFa	81 % of the controls	92 % of the controls	77 % of the controls	86 % of the controls	–	–	–	–	166 % of the controls	262 % of the controls	67 % of the controls	91 % of the controls	–	92 % of the controls	139 % of the controls	–	107 % of the controls	126 % of the controls	190 % of the controls	139+/−26 % of the controls
